Test results from paper PMC4546618, “Casitas B-Lineage Lymphoma RING Domain Inhibitors Protect Mice against High-Fat Diet-Induced Obesity and Insulin Resistance” (PLoS ONE, 2015).
*1 amine or outer side, *2 acyl side, *3 side chain or, on linkers, in order; H or OH if unused. Where a SMILES comes first, the peptide text is derived from it. [ ]: non-standard residue; d: D form. Pro(trans-4-F) = O=C(O)[C@@H]1C[C@@H](F)CN1; X1 = CC(=O)N(O)CCCC[C@H](N[*:1])C(=O)[*:2]; Phe(3-F) = N[C@@H](Cc1cccc(F)c1)C(=O)O; Cha = N[C@@H](CC1CCCCC1)C(=O)O; ΔPro = O=C(O)[C@@H]1C=CCN1; Pip = O=C(O)[C@@H]1CCCCN1; Thz = O=C(O)[C@@H]1CSCN1; Aze = O=C(O)[C@@H]1CCN1

Target: T1, Cbl (RING) protein (Homo sapiens, UniProt P22681)
T1 construct: including the linker and RING domain (codon 358–457); GST (Glutathione S-Transferase); made in house
T1 sequence (P22681 358-457): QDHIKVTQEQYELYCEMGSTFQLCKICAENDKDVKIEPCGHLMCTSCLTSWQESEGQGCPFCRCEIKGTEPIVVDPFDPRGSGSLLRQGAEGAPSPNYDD
Experiment: Fluorescence polarization (FP) assay, competition with FITC-βA-PFKPP-NH2 probe
Type: binding
Details: probe FITC-βA-PFKPP-NH2 100 nmol/L, Cbl (RING) protein 3 μmol/L, PBS pH 7.4
Protocol: Peptides and peptide mimetics were purchased from MitenChem (China) with a purity ≥ 98%. Concentrations values of reconstituted peptides were determined by amino acid analysis at the protein core facility (Chengdu Medical College). The recombinant Cbl protein was produced by the Chengdu Medical College Protein Core Facility and was described previously. The c-Cbl (RING) protein, including the linker and RING domain (codon 358–457), was tagged with Glutathione S-Transferase (GST) and purified with GSH-Sepharose (Shanghai Biopharma).
The FP assay was developed and validated previously. Briefly, fluorescein-labeled probe (FITC-βA-PFKPP-NH2, 100 nmol/L) and Cbl (RING) protein (3 μmol/L) were mixed and diluted to the final concentration using 0.01% Triton X-100 in PBS (pH = 7.4). Then, 19 μl of this master mix was loaded to each reaction well. The peptides or peptide mimetics were then loaded to the designated wells (1 μl, 10 μmol/L– 0.078 μmol/L, half-fold dilutions). The total fluorescence and polarization values were measured at an excitation wavelength of 485 nm and an emission wavelength of 538 nm using a ZS-2 plate reader. The data was fitted, and the ΔmP, Kd, and Ki values were estimated, using SigmaPlot 11.0.

| Compound | Ki [µM] |
| --- | --- |
| CC(=O)N[C@@H](CCCCN)C(=O)N1CC=C[C@H]1C(=O)N[C@@H](C)C(=O)N[C@H](C(=O)N[C@@H](CCCCN)C(N)=O)[C@@H](C)O [Peptide 47, Ac-K(p)ATK-NH2] (Ac-K[ΔPro]ATK-NH2) | 44.3 ± 13.2 |
| CC(=O)N1CCC[C@@H]1C(=O)N[C@@H](Cc1cccc(F)c1)C(=O)N[C@@H](CCCCN)C(=O)N1CCC[C@H]1C(=O)N1CCC[C@H]1C(N)=O [Peptide 31, Ac-(o) (h)KPP-NH2] (Ac-[dP][Phe(3-F)]KPP-NH2) | 4.5 ± 0.5 |
| CC(=O)N1CCC[C@H]1C(=O)N[C@@H](Cc1cccc(F)c1)C(=O)N[C@@H](CCCCN)C(=O)N1CCC[C@@H]1C(=O)N1CCC[C@H]1C(N)=O [Peptide 24, Ac-P(h)K(o)P-NH2] (Ac-P[Phe(3-F)]K[dP]P-NH2) | 3.5 ± 0.4 |
| CC(=O)N[C@@H](CCCCN)C(=O)N1CC[C@H]1C(=O)N[C@@H](C)C(=O)N[C@H](C(=O)N[C@@H](CCCCN)C(N)=O)[C@@H](C)O [Peptide 48, Ac-K(q)ATK-NH2] (Ac-K[Aze]ATK-NH2) | 59.6 ± 13.5 |
| CC[C@H](C)[C@H](NC(=O)[C@@H]1CSCN1C(=O)[C@H](CCCCN)NC(C)=O)C(=O)N[C@H](C(=O)N[C@@H](CCCCN)C(N)=O)[C@@H](C)O [Peptide 55, Ac-K(r)ITK-NH2] (Ac-K[Thz]ITK-NH2) | 190 ± 19.2 |
| CC(=O)N1CCC[C@H]1C(=O)N[C@@H](Cc1cccc(F)c1)C(=O)N[C@@H](CCCCN)C(=O)N1CCC[C@H]1C(=O)N1CC=C[C@H]1C(N)=O [Peptide 18, Ac-P(h)KP(p)-NH2] (Ac-P[Phe(3-F)]KP[ΔPro]-NH2) | > 250 |
| CC(=O)N1CCC[C@H]1C(=O)N[C@@H](CC1CCCCC1)C(=O)N[C@@H](CCCCN)C(=O)N1CCC[C@H]1C(=O)N1CCC[C@H]1C(N)=O [Peptide 5, Ac-P(c)KPP-NH2] (Ac-P[Cha]KPP-NH2) | 125 ± 12.6 |
| CC(=O)CN(CCCC[C@H](NC(C)=O)C(=O)N1CCC[C@H]1C(=O)N[C@@H](C)C(=O)N[C@H](C(=O)N[C@@H](CCCCN(O)C(C)=O)C(N)=O)[C@@H](C)O)C(C)=O [Peptide 45, Ac-(w)PAT(v)-NH2] | 196 ± 12.3 |
| CC(=O)N[C@@H](CCCCN)C(=O)N1CSC[C@H]1C(=O)N[C@H](C(=O)N[C@H](C(=O)N[C@@H](CCCCN)C(N)=O)[C@@H](C)O)C(C)C [Peptide 53, Ac-K(r)VTK-NH2] (Ac-K[Thz]VTK-NH2) | 91.2 ± 6.6 |
| CC(=O)N1C[C@H](F)C[C@H]1C(=O)N[C@@H](Cc1cccc(F)c1)C(=O)N[C@@H](CCCCN)C(=O)N1CCC[C@H]1C(=O)N1CCC[C@H]1C(N)=O [Peptide 36, Ac-(t) (h)KPP-NH2] (Ac-[Pro(trans-4-F)][Phe(3-F)]KPP-NH2) | 14.5 ± 2.9 |
| CC(=O)N1CCC[C@H]1C(=O)N[C@@H](Cc1cccc(F)c1)C(=O)N[C@@H](CCCCN)C(=O)N1CCC[C@H]1C(=O)N1CC[C@H]1C(N)=O [Peptide 19, Ac-P(h)KP(q)-NH2] (Ac-P[Phe(3-F)]KP[Aze]-NH2) | > 250 |
| CC(=O)N1CCCC[C@H]1C(=O)N[C@@H](Cc1cccc(F)c1)C(=O)N[C@@H](CCCCN)C(=O)N1CCC[C@H]1C(=O)N1CCC[C@H]1C(N)=O [Peptide 35, Ac-(s) (h)KPP-NH2] (Ac-[Pip][Phe(3-F)]KPP-NH2) | 122 ± 9.8 |
| CC(=O)N[C@@H](CCCCN)C(=O)N1C[C@H](F)C[C@H]1C(=O)N[C@@H](C)C(=O)N[C@@H](C)C(=O)N[C@@H](CCCCN)C(N)=O [Peptide 57, Ac-K(t)AAK-NH2] (Ac-K[Pro(trans-4-F)]AAK-NH2) | 179 ± 10.2 |
| CC(=O)N[C@@H](CCCCN)C(=O)N1CCC[C@H]1C(=O)N[C@@H](C)C(=O)N[C@H](C(=O)N[C@@H](CCCCN(O)C(C)=O)C(N)=O)[C@@H](C)O [Peptide 42, Ac-KPAT(v)-NH2] (Ac-KPAT[X1]-NH2) | 59.8 ± 6.5 |
| CC(=O)N1CCC[C@H]1C(=O)N[C@@H](Cc1cccc(F)c1)C(=O)N[C@@H](CCCCN)C(=O)N1CCC[C@H]1C(=O)N1CCCC[C@H]1C(N)=O [Peptide 21, Ac-P(h)KP(s)-NH2] (Ac-P[Phe(3-F)]KP[Pip]-NH2) | 90.9 ± 0.7 |
